Converted amounts (≈) assume the structure as drawn.
Tests used:
Staphylococcus aureus [1] = experiment: Antibacterial activity against Staphylococcus aureus by twofold dilution method; assay type: functional; settings: Staphylococcus aureus; read-out: MIC
Candida albicans [2] = experiment: Antifungal activity against Candida albicans by twofold dilution method; assay type: functional; settings: Candida albicans; read-out: MIC
Aspergillus flavus [3] = experiment: Antifungal activity against Aspergillus flavus by twofold dilution method; assay type: functional; settings: Aspergillus flavus; read-out: MIC
[4] = tested on: Salmonella enterica subsp. enterica; experiment: Ratio of MIC for drug to MIC for Ciprofloxacin against Salmonella typhi; assay type: functional, Salmonella enterica subsp. enterica serovar Typhi
[5] = tested on: Salmonella enterica subsp. enterica; experiment: Antibacterial activity against Salmonella typhi by twofold dilution method; assay type: functional, Salmonella enterica subsp. enterica serovar Typhi; settings: Salmonella enterica; read-out: MIC
Rhizopus [6] = experiment: Antifungal activity against Rhizopus sp. by twofold dilution method; assay type: functional; settings: Rhizopus; read-out: MIC
Aspergillus niger [7] = experiment: Antifungal activity against Aspergillus niger by twofold dilution method; assay type: functional; settings: Aspergillus niger; read-out: MIC
Staphylococcus aureus [8] = experiment: Ratio of MIC for drug to MIC for Ciprofloxacin against Staphylococcus aureus; assay type: functional
Escherichia coli [9] = experiment: Antibacterial activity against Escherichia coli by twofold dilution method; assay type: functional; settings: Escherichia coli; read-out: MIC
Cryptococcus neoformans [10] = experiment: Antifungal activity against Cryptococcus neoformans by twofold dilution method; assay type: functional; settings: Cryptococcus neoformans; read-out: MIC
Pseudomonas aeruginosa [11] = experiment: Antibacterial activity against Pseudomonas aeruginosa by twofold dilution method; assay type: functional; settings: Pseudomonas aeruginosa; read-out: MIC
Pseudomonas aeruginosa [12] = experiment: Ratio of MIC for drug to MIC for Ciprofloxacin against Pseudomonas aeruginosa; assay type: functional
Escherichia coli [13] = experiment: Ratio of MIC for drug to MIC for Ciprofloxacin against Escherichia coli; assay type: functional
Candida = experiment: Antifungal activity against Candida 51 by twofold dilution method; assay type: functional; settings: Candida, 51; read-out: MIC
Rhizopus [14] = experiment: Ratio of MIC for drug to MIC for Amphotericin B against Rhizopus sp.; assay type: functional
Candida albicans [15] = experiment: Ratio of MIC for drug to MIC for Amphotericin B against Candida albicans; assay type: functional
Aspergillus niger [16] = experiment: Ratio of MIC for drug to MIC for Amphotericin B against Aspergillus niger; assay type: functional
Cryptococcus neoformans [17] = experiment: Ratio of MIC for drug to MIC for Amphotericin B against Cryptococcus neoformans; assay type: functional
Aspergillus flavus [18] = experiment: Ratio of MIC for drug to MIC for Amphotericin B against Aspergillus flavus; assay type: functional

| Compound | MIC (Staphylococcus aureus [1]) | MIC (Candida albicans [2]) | MIC (Aspergillus flavus [3]) | Ratio [4] | MIC [5] | MIC (Rhizopus [6]) | MIC (Aspergillus niger [7]) | Ratio (Staphylococcus aureus [8]) | MIC (Escherichia coli [9]) | MIC (Cryptococcus neoformans [10]) | MIC (Pseudomonas aeruginosa [11]) | Ratio (Pseudomonas aeruginosa [12]) | Ratio (Escherichia coli [13]) | MIC (Candida) | Ratio (Rhizopus [14]) | Ratio (Candida albicans [15]) | Ratio (Aspergillus niger [16]) | Ratio (Cryptococcus neoformans [17]) | Ratio (Aspergillus flavus [18]) |
| --- | --- | --- | --- | --- | --- | --- | --- | --- | --- | --- | --- | --- | --- | --- | --- | --- | --- | --- | --- |
| CC1C(=NOCc2ccccc2)C(C)C(c2ccc(Cl)cc2)NC1c1ccc(Cl)cc1 (stereo unspecified) | 6.25 µg/mL (≈ 13.8 µM) | 25 µg/mL (≈ 55.1 µM) | 25 µg/mL (≈ 55.1 µM) | 2 | 25 µg/mL (≈ 55.1 µM) | 50 µg/mL (≈ 110 µM) | 25 µg/mL (≈ 55.1 µM) | 2 | 12.5 µg/mL (≈ 27.6 µM) | 25 µg/mL (≈ 55.1 µM) | 6.25 µg/mL (≈ 13.8 µM) | 4 | 2 | 25 µg/mL (≈ 55.1 µM) | – | – | – | – | – |
| Cc1ccc(C2NC(c3ccc(C)cc3)C(C)C(=NOCc3ccccc3)C2C)cc1 (stereo unspecified) | 6.25 µg/mL (≈ 15.1 µM) | 50 µg/mL (≈ 121 µM) | 25 µg/mL (≈ 60.6 µM) | – | 50 µg/mL (≈ 121 µM) | 12.5 µg/mL (≈ 30.3 µM) | 50 µg/mL (≈ 121 µM) | – | 12.5 µg/mL (≈ 30.3 µM) | 50 µg/mL (≈ 121 µM) | 25 µg/mL (≈ 60.6 µM) | 4 | 4 | 6.25 µg/mL (≈ 15.1 µM) | 2 | 2 | 2 | 2 | 2 |
